“Also recorded” adds a separate entry of the source.

The subject of experiment [1] is mouse fibroblast cell line NIH3T3. The experiment in a line: Anchoring of conjugates to cell membranes, observed by confocal laser scanning microscope. The settings on record: for Anchoring to cell surface: Mouse fibroblasts NIH3T3, 37° C. for 5 min, confocal microscope, 1000 magnifications.
Method: Mouse fibroblasts NIH3T3 were cultured at 37° C. under 5% CO2 concentration using Dulbecco's Modified Eagle's Medium supplemented with 10% fetal calf serum and Glass bottom Microwell Dishes (35 mm dish, Uncoated, No. 0 Coverslip). The cells were cultured until the culture was approximately 80% confluent for 20 hours to 45 hours. […] The Glass bottom Microwell Dishes with NIH3T3 cells attached thereto were rinsed with 2 mL of phosphate buffered saline (the same as described above) which was subjected to filtration sterilization beforehand. Then, 0.1 mL of the polyethylene oxide oleylether-biotin conjugate solution was added to the NIH3T3 cells attached on the glass surface and a reaction was performed at 37° C. for 5 min. After the reaction, the cells were washed twice with 2 mL of phosphate buffered saline. Then, 0.1 mL of phosphate buffered saline containing 6.7 nM streptavidin and fluorescein conjugate (Molecular Probes; Cat# S-869) (hereinafter referred to as “fluorescein-labeled streptavidin”) was added to the cells, followed by incubation at 37° C. for 20 min.
The modification of the cell membranes was verified by observing the cells under a confocal laser scanning microscope (Leica).
The subject of experiment [2] is Chinese hamster ovarian follicle cell line CHO. As to the kind of experiment: Anchoring of EGFP conjugate to cell membranes, observed by confocal laser scanning microscope. In kind it is cell-based. Also noted: Anchoring to cell surface: key to the marks not given beside the values. From the text: Therefore, it was verified that the conjugate can be anchored to cells other than mouse cells.

Experiment [3] has as its system suspended cells (32D, Ba/F3 and 9E10 cells). The experiment in a line: Anchoring of EGFP conjugate to suspended cells, flow cytometer. It is filed as cell-based, mouse. Further details: Anchoring to cell surface: key to the marks not given beside the values. How it is done: (§1) Mouse hybridoma 9E10 was cultured at 37° C. under 5% CO2 concentration using RPMI 1640 media (“Nissui” powder, NISSUI PHARMACEUTICAL CO., LTD., Cat# 05918) supplemented with 10% fetal calf serum. […] 32D, Ba/F3 and 9E10 cells (hereinafter, generically called as “suspended cells”) were centrifuged to collect 1×10^6 cells. Each of the cell was centrifuged for washing with 13 mL of phosphate buffered saline. […] Then the cells were centrifuged for washing once with 13 mL of phosphate buffered saline, and then 1 mL of phosphate buffered saline was added to each cell pellet.
(§2) Respective treated cell suspensions were observed under a flow cytometer (Coulter, EPICS-C). […] Thus, it was verified that the polyethylene oxide oleylether-EGFP can be anchored to suspended cells.
Background: A flow cytometer gives signals particle by particle.

The test system of experiment [4] is mouse hybridoma 9E10. As to the kind of experiment: Flow cytometer fluorescence intensity of treated suspended cells. It is filed as cell-based. The settings on record: 37° C. for 5 min. As to the method:
as §1, §2

The test system of experiment [5] is mouse myeloid cell line 32D. The description is as above. It is filed as cell-based. The settings on record: 37° C. for 5 min. How it is done:
as §1, §2

In experiment [6] the test system is mouse pro-B cell line Ba/F3. The description is as above. In kind it is cell-based. The settings on record: 37° C. for 5 min. How it is done:
as §1, §2

Where [7] appears, read: NIH3T3, confocal laser scanning microscope.

On to “Polyethylene Oxide Oleylether (n=40; Average Molecular Weight of 2250)-biotin Conjugates [Example 8]”, for which, in experiment [1], the “Anchoring to cell surface” value was “++”.
As for “Fluorescent-Labeled (Fluorescein)-Polyethylene Oxide-Modified Dioleoyl Phosphatidyl Ethanolamine [Example 11]”, in experiment [1], the “Anchoring to cell surface” value is listed as “++”. Also, in experiment [1] (setting [7]), the “fluorescence on cell membranes / anchoring (result in words)” value was “Fluorescence from fluorescein was observed on the cell membranes of all the NIH3T3 cells”.
Consider `NCCOCCOCCNC(=O)CCCC[C@@H]1SC[C@@H]2NC(=O)N[C@@H]21` [biotin-NH2, Biotin-PEO-Amine, reference compound], for which, in experiment [1] (setting [7]), the “fluorescence on cell membranes / anchoring (result in words)” value is listed as “no fluorescence from fluorescein was observed”.
With “polyethylene oxide oleylether succinate [reference compound]”, in experiment [1] (setting [7]), the “fluorescence on cell membranes / anchoring (result in words)” value is reported as “no fluorescence from fluorescein was observed”.
For the compound “Polyethylene Oxide Oleylether (n=180; Average Molecular Weight of 8400)-biotin Conjugates [Example 9]”, the “Anchoring to cell surface” value in experiment [1] is recorded as “++”.
In the case of “Polyethylene Oxide Nonylphenyl Ether (n=40, Average Molecular Weight of 2160)-biotin Conjugate [Example 17, reference compound]”, in experiment [1], the “Anchoring to cell surface” value is on record as “−”. The “fluorescence on cell membranes / anchoring (result in words)” value in experiment [1] (setting [7]) was “no fluorescence from fluorescein was observed”.
As for “Polyethylene Oxide Oleylether (n=90, Average Molecular Weight of 4400)-Green Fluorescent Protein EGFP Conjugate [Example 4]”, the “fluorescence from EGFP on cell membranes (result in words)” value in experiment [2] (CHO cells, confocal laser scanning microscope) is given as “fluorescence from EGFP was observed on the cell membranes of all of the CHO cells”. In addition, the “Anchoring to cell surface” value in experiment [2] (Chinese hamster ovarian follicle cells CHO, confocal microscope) is “++”; in experiment [3] (Suspended cell) it was “++”; in experiment [1], “++”. Further, the “fluorescence intensity of cells compared to cells treated only with EGFP (result in words)” value in experiment [3] (suspended cells, flow cytometer) is listed as “an increased number of the cells with a stronger fluorescence intensity was observed”. In addition, the “relative value of fluorescence intensity of cells” value stood at 49.6 in experiment [4], 30.1 in experiment [5] and 36.7 in experiment [6]. Moreover, the “fluorescence on cell membranes / anchoring (result in words)” value in experiment [1] (setting [7]) is “anchored to the cell membranes”.
Regarding “Polyethylene Oxide Oleylether (n=90, Average Molecular Weight of 4400)-biotin Conjugate [Example 2]”, the “Anchoring to cell surface” value in experiment [1] is “++”. The “time in which conjugates were anchored to all of the cell membranes” value in experiment [1] (NIH3T3, 37° C.) is listed as not above 5 min. Further, the “fluorescence on cell membranes / anchoring (result in words)” value in experiment [1] (NIH3T3; confocal laser scanning microscope; average molecular weight of 4400)-biotin co) is “fluorescence deriving from fluorescein was observed on the cell membranes of all of the cells in the field; also recorded: fluorescence from fluorescein was specifically observed only in the cell membranes”. In experiment [1] (NIH3T3, fluorescein-labeled streptavidin), the “binding of biotin to streptavidin after anchoring” value is on record as “not inhibited”.
With “Amino Polyethylene Oxide Oleylether (n=90, Average Molecular Weight of 4400)-biotin Conjugate [Example 12]”, the “Anchoring to cell surface” value in experiment [1] is “++”. Besides, the “fluorescence on cell membranes / anchoring (result in words)” value in experiment [1] (setting [7]) was “remain unchanged and still excellent”.
Take “Polyethylene Oxide Oleylether (n=15; Average Molecular Weight of 1100)-biotin Conjugates [Example 7]”: the “Anchoring to cell surface” value in experiment [1] is listed as “++”.
Turning to “Oleic Acid-biotin [Example 15, reference compound]”, the “Anchoring to cell surface” value in experiment [1] is listed as “−”. Also, the “fluorescence on cell membranes / anchoring (result in words)” value in experiment [1] (setting [7]) is on record as “no fluorescence from fluorescein was observed”.
The like results for “Polyethylene Oxide Stearyl Ether (n=15: Average Molecular Weight of 1100)-biotin Conjugates [Example 10]” were, in that order, “+” and “fluorescence from fluorescein was observed on the cell membranes of the NIH3T3 cells”.
